target: T1, human intermediate-conductance Ca2+-activated K+ channels (hIK channels) (Homo sapiens, UniProt O15554); test: Block of IK channels, whole-cell patch-clamp; format: cell-based; settings: hIK cloned from human placenta, stably expressed in HEK293 cells; Ki = koff/kon from kinetics of the block
T1 construct: expressed in transfected cells
Experimental: In this example the ability of the compounds of the invention to inhibit human intermediate-conductance Ca^2+-activated K^+ channels (hIK channels) is examined.
hIK channels have been cloned from human placenta and stably expressed in HEK293 cells. The ionic current through the channels is recorded in the whole-cell mode of the patch-clamp technique.
A Ki value is calculated from the kinetics of the block.
The inhibition of the current is assumed to occur by a simple drug (D)−receptor (R) interaction after the following scheme: [drawing 3]
This is a simple bimolecular reaction, which integrated under non-equalibrium conditions are described by the equation: It=I0*(1−(C/C+(koff/kon)))*(1−exp(−(C* kon+koff)*t))) • wherein, • It=current at time t in nA • koff=off-rate in s^−1 • I0=basal current in nA • kon=on-rate in M^−1s^−1 • C=drug concentration in μM
By using the equation above, a fit to the time-course of the decrease in current yields the values koff and kon. Ki equals the ratio koff/kon, and Ki is the test value to be reported. At t=∞ (equalibrium) the equation simplifies to the Michaelis-Menten equation with Ki=IC50.

| SMILES | Ki [nM] |
| --- | --- |
| N#CC(CC(=O)O)(c1ccc(F)cc1)c1ccc(F)cc1 [Compound 2, 3-Cyano-3,3-bis-(4-fluoro-phenyl)-propionic acid] | 2200 |
| CCOC(=O)CCC(C#N)(c1ccc(F)cc1)c1ccc(F)cc1 [Compound 4, Ethyl 4-cyano-4,4-bis-(4-fluoro-phenyl) butyrate] | 1400 |
| NC(CSC(c1ccc(F)cc1)(c1ccc(F)cc1)c1ccccc1F)=NO [Compound 6, 2-[(2-Fluoro-phenyl)-bis-(4-fluoro-phenyl)-methanesulfanyl]-N-hydroxy acetamidine] | 530 |
| N#CC(Cc1ccccn1)(c1ccc(F)cc1)c1ccc([N+](=O)[O-])c(C(F)(F)F)c1 (stereo not shown) [Compound 8, 2-(4Fluoro-phenyl)-2-(4-nitro-3-trifluoromethyl-phenyl)-3-pyridin-2-yl-propionitrile] | 65 |

Reference: patent publication US20070027205A1, “Diarylmethyl derivatives as potassium channel modulators” (priority 2003, published 2007)
